In test [1] the test system is ECS cells (derived from SCC-13) tumors. Briefly: Tumor xenograft growth assay, SCC-13-derived ECS cells in NSG mice. The class given is in vivo. How it is done:
In (A), SCC13-Control-shRNA and SCC13-TG2-shRNA2 cells were double electroporated with empty vector (EV) or YAP(S127A)-encoding vector and at 48 h post-electroporation lysates were collected for immunoblot. In (B), (C), and (D), the indicated cell lines were electroporated with EV or YAP(S127A)-encoding vector and then plated for spheroid formation, invasion and migration assay. In (E) and (F), ECS cells (100,000 cells derived from SCC-13) were injected into each front flank in NSG mice. At 1 d post injection, the mice were treated with 0 or 20 mg NC9 per kg body weight delivered in 200 μl by gavage three times per week. Images represent appearance and size of typical control and NC9 treated tumors harvested on week four. In (G), tumors were harvested at 4 wk and extracts were prepared for assay of indicated proteins. Blots from two representative tumors are shown. In (H), a proposed TG2 signaling scheme is shown. TG2 interacts with α6/β4 integrin to enhance integrin (FAK/Src) signaling which increases PI3K/PDK1 activity and PDK suppresses activity in the Hippo signaling cascade (LATS1). This leads to reduced LATS1 phosphorylation of YAP1 which then interacts with and stabilizes ΔNp63α. […]
Tumor xenograft growth assay. […] Tumor growth was monitored by measuring tumor diameter and calculating tumor volume=4/3π×(diameter/2)^3 (Streit, M. et al., Am. J. Pathol. 155:441-52, 1999). […]

In another test the test system is A431 cells. As to the kind of experiment: EMT marker immunoblot, A431 cells. It counts as cell-based, human. Particulars: 20 μM, 48 h. How it is done:
In (A), it is shown that A431-derived ECS cells have elevated TG2 and mesenchymal markers. A431 cells (40,000 cells/well) were grown in spheroid media in monolayer conditions or as non-attached spheroids (ECS cells) for 10 d. Cells were harvested and lysates prepared for immunoblot. In (B), A431 cells were electroporated with 3 μg of control- or TG2-siRNA and at 72 h extracts were prepared to assay TG2 and EMT marker level. In (C), A431-derived ECS cells were electroporated with 3 μg of the indicated siRNA and then grown as spheroids for 96 h. […] In (D), A431 cells (500,000 cells/well) were plated in monolayer culture in spheroid media in 100 mm dishes. The following day, at time zero, 0 or 20 μM NC9 was added with fresh addition of medium and NC9 at 24 h. At 48 h the cells were harvested and extracts prepared for immunoblot. In (E), A431 cells were pretreated in 0 or 20 μM NC9 for 2 h and then harvested and 25,000 cells were seeded in the upper chamber above a matrigel-coated membrane in 1 mL of growth medium containing 1% FCS in a Millicell chamber. The lower chamber was filled with growth medium containing 10% FCS. […] Confluent monolayers were then scratched with a 10-μL pipette tip, rinsed, and width of the wound was monitored for 0-14 h. […]
Background: A western blot detects proteins with antibodies after separation by electrophoresis.

The next test deals with U251 cells. Briefly: Agarose colony formation assay, U251 cells. The class given is cell-based, human. The note with it: 10 μM, 2 weeks. How it is done: Agarose colony formation assay. Agarose colony formation assay was conducted as described (Horman, S. R. et al., J. Biomol. Screen 18(10):1298-308, 2013; Zhang, K. et al., Tumour Biol. 35(3):2537-48, 2014) using 6-well plates and 5,000 cells in each well. 10 μM NC9 or DMSO was added to every layer at the start of the experiments. 2 mL liquid MEM containing 10 μM NC9 or DMSO was used to cover the agarose and it was changed 3 times a week. Colony growth was monitored every day and at the end of 10-15 days, the colonies were fixed with 4% paraformaldehyde, stained with 0.005% crystal violet, washed with PBS twice and 40 random pictures were taken from each treatment group. A person blinded for the treatments measured the area of the colonies using ImageJ program and the volumes were calculated from the area data under the assumption that the colonies are perfect spheres. The volumes were used to compare the effect of NC9 on colony growth.

Molecules are shown by their SMILES.

`C=CC(=O)NCCCC[C@H](NC(=O)OCc1ccccc1)C(=O)NCCOCCOCCNS(=O)(=O)c1cccc2c(N(C)C)cccc12` [NC9]: in test [1] (20 mg/kg body weight, three times per week, 4 wk), the tumor formation result is “markedly suppressed tumor formation”. The “integrin and Hippo signaling in tumor extracts” value in test [1] (20 mg/kg, tumors harvested at 4 wk) is “reduced integrin-04 level, and FAK and Src activity, and increased LATS1-P and YAP-P”. In addition, the EMT markers expression result in the test on A431 cells is “reduction in EMT markers expression”. In the test on U251 cells, the “colony growth, U251” value is “significantly reduced the growth”.

The record behind these values is patent US10894777B2, “TG2 inhibitor piperazine compounds and uses thereof” (UNIVERSITY OF OTTAWA, priority 2016, dated 2021).
